According to patent US11707437B2, “Topical formulations with resiniferatoxin nanoparticles and methods” (priority 2019, dated 2023):

Legend:
[1] = molecular target: TRPV1 ion channel (UniProt O35433); assay: patch clamp current recordings from HEK cells stably expressing TRPV1; format: cell-based; conditions: for reversibility of current response by washout: FIG. 3
Method: Y axis is current amplitude and X-axis is time indicated by a 2 min bar.

[2] = intraperitoneally in rats, over a period of 9 months; cited from earlier work
[3] = molecular target: TRPV1 receptor (Homo sapiens, UniProt Q8NER1); conditions: cited from earlier work
[4] = system: TRPV1 positive peripheral terminals; conditions: local intra-dermal administration, rodents; cited from earlier work
[5] = system: TRPV1 expressing nerve terminals; conditions: intrathecal administration, STZ-induced diabetes; cited from earlier work

Chain of TRPV1 receptor (Q8NER1 whole entry): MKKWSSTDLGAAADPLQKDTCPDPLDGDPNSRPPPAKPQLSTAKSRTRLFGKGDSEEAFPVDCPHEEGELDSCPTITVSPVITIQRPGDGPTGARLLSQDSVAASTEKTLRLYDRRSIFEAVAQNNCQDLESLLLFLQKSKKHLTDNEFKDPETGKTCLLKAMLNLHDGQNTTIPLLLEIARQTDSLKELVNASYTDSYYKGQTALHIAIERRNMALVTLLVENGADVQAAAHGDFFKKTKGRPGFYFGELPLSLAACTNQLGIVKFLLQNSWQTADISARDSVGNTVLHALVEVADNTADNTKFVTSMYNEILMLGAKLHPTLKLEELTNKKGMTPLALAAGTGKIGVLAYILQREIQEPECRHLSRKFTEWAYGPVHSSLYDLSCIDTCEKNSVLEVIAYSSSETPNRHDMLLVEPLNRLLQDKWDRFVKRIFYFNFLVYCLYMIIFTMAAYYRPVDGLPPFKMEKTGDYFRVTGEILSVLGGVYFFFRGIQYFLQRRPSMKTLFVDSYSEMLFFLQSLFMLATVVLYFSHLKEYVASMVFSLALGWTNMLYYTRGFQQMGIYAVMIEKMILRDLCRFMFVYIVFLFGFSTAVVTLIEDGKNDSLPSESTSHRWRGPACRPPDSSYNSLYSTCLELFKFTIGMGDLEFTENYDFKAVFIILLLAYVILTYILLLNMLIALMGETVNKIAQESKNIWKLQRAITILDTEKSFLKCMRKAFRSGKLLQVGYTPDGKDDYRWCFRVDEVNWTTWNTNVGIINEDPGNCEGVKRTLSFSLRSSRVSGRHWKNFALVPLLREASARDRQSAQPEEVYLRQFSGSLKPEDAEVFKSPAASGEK

SMILES	current activation ([1]; 7.9 fM to 15.8 pM, after 100 nM capsaicin, rate of activation concentration dependent)	reversibility of current response by washout ([1]; RTX 7.9 fM)	concentrations activating TRPV1 ion channels relative to capsaicin ([1]; RTX at fM to pM concentrations, FIG. 2)	dose administered without observable side effects [2] [mg/kg]	concentrations that fully activate TRPV1 receptor [3]	pain sensitivity [4]	effect on thermal hyperalgesia [5]	reversibility of current response by washout ([1]; capsaicin 100 nM)
C=C(C)[C@]12C[C@@H](C)[C@@]34O[C@](Cc5ccccc5)(O[C@@H]1[C@@H]3C=C(COC(=O)Cc1ccc(O)c(OC)c1)C[C@]1(O)C(=O)C(C)=C[C@@H]41)O2 [RTX, Resiniferatoxin]	activated currents maximally	could not be reversed by washout	five to nine orders of magnitude lower than capsaicin	≤ 0.2	femtomolar-picomolar range	complete loss of pain sensitivity	reversed thermal hyperalgesia	
COc1cc(CNC(=O)CCCC/C=C/C(C)C)ccc1O [capsaicin]								could be reversed by washout
